Experimental data from US6683186B2, “2,3-Disubstituted pyridine derivative, process for the preparation thereof, pharmaceutical composition containing the same, and intermediate therefor” (Dainippon Pharmaceutical Company, Limited, priority 1998, dated 2004).
Where a name gives a salt, the structure may show the parent alone. Read-outs that look alike come from different tables or passages of the source.

Columns and labels:
[1] = tested on: PDE IV isolated and purified from guinea pig eosinophils; assay: PDE IV inhibitory activity test; type: biochemical; conditions: hydrolysis of cAMP by enzyme preparation from guinea pig eosinophils; read-out: 50% Inhibitory Concentration
Protocol: The PDE IV inhibitory activity test was carried out according to a method using cosinophils prepared from the abdomen of guinea pig (Souness, J. E. et al., Biochem. Pharmacol. vol. 42, p. 937 (1991)). That is, a homogenizing buffer (10 ml, components: 20 mM Tris-HCl buffer (pH 7.5); 2 mM magnesium chloride; 1 mM dithiothreitol, 5 mM ethylenediamine tetraacetate disodium; 250 mM sucrose; 20 μM p-tosyl-l-lysine-chloromethylketone; 10 μg/ml Leupeptine) was added to 5×10^7 cells, and the mixture was centrifuged. To the residue was added a solubilizing buffer (10 ml, sodium deoxycholate (final concentration: 0.5%) and sodium chloride (final concentration: 100 mM) were added to the above homogenizing buffer), and the mixture was centrifuged again. The supernatant was subjected to ultrafiltration using Molcut-II (manufactured by Japan Millipore Limited), and the fraction on the membrane was collected by adding a homogenizing buffer (10 ml) to give an enzyme preparation. Inhibitory activity against the enzyme was determined by comparing the hydrolysis rates of a substrate, cAMP (manufactured by Nacalai Tesque Inc.), by the above enzyme fraction between in the test compound-treated group and the vehicle group.

[2] = tested on: bronchoconstriction of guinea pig induced by the antigen; assay: Inhibitory effect on antigen-induced bronchoconstriction (Konzett-Roessler method); type: in vivo; conditions: sensitized guinea pigs; for inhibition in vivo at 10 mg/kg / inhibition in vivo at 3 mg/kg / inhibition in vivo at 30 mg/kg: Cavia porcellus, po, read-out: Inhibitory Rate; for inhibition in vivo at 3 mg/kg: 3 mg/kg orally; for inhibition in vivo at 30 mg/kg: 30 mg/kg orally
Protocol: Hartley male guinea pigs were actively sensitized by intraperitoneally administering an ovalbumin (manufacture by Sigma). Four weeks thereafter, the animals were anesthetized with Nembutal (50 mg/kg, i.p., manufactured by Dainabot Co., Ltd.), and a cannual was inserted at the airway, and the bronchoconstriction response of the animals under artificial respiration was observed. The response of the airway was measured by Konzett-Roessler method (Naunyn-Schmiedebergs, Aech. Exp. Pathol. Pharmacol., vol. 195, p. 71 (1940)). A test compound (the compounds of Examples of the present invention as listed in Table 3) was orally administered to the animals one hour prior to the administration of the antigen (i.e., ovalbumin, 0.05%/physiological saline solution, i.v.). Only the compound of Example 31 was orally administered 2 hours prior to the administration of the antigene. The inhibitory rate (%) caused by the test compound was calculated by comparing the bronchoconstriction response of the test compound-treated group with that of the control group to which only a solvent was administered.

[3] = acute toxicity test; type: in vivo; conditions: dose of 2000 mg/kg
Text: Besides, the present compounds (I) of the present invention are low toxic.

[4] = 1 h, 10 mg/kg orally, one hour prior to antigen (ovalbumin i.v.)
[5] = 2 hours prior to antigen (ovalbumin i.v.)
[6] = 1 h, one hour prior to antigen (ovalbumin i.v.)

## Brc1cccc(Sc2ncccc2OCCCc2cccnc2)c1 [Example 3, 2-(3-bromophenylthio)-3-[3-(pyridin-3-yl)propoxy]-pyridine]
[1]
  IC50: 35.6 nM
[2]; [4]
  inhibition in vivo at 10 mg/kg: 59.9%

## Brc1cccc(Sc2ncccc2OCCCc2ccncc2)c1 [Example 7, 2-(3-bromophenylthio)-3-[3-(pyridin-4-yl)propoxy]pyridine]
other
  melting point: 89 to 90 °C
[1]
  IC50: 33.7 nM
[2]; [4]
  inhibition in vivo at 10 mg/kg: 77.2%

## Oc1cccc(Sc2ncccc2OCCCc2ccncc2)c1 [Example 13, 2-(3-hydroxyphenylthio)-3-[3-(pyridin-4-yl)propoxy]pyridine]
other
  melting point: 158 to 159 °C

## COc1cccc(Sc2ncccc2OCCCc2ccncc2)c1 [Example 14]
other
  melting point: 84 to 85 °C
[1]
  IC50: 15.3 nM

## c1ccc(Sc2ncccc2OCCCc2ccncc2)cc1 [Example 15]
other
  melting point: 41 to 43 °C
[1]
  IC50: 9.7 nM

## Oc1cnccc1CCCOc1cccnc1Sc1cccc(Br)c1 [Example 26, 2-(3-bromophenylthio)-3-[3-(3-hydroxypyridin-4-yl)-propoxy]pyridine]
[2]; [4]
  inhibition in vivo at 10 mg/kg: 48.3%

## N#Cc1cccc(Oc2ncccc2OCCCc2ccncc2O)c1 [Example 28, 2-(3-cyanophenoxy)-3-[3-(3-hydroxypyridin-4-yl)-propoxy]pyridine]
[2]; [4]
  inhibition in vivo at 10 mg/kg: 54%

## CCOC(=O)c1cccc(Oc2ncccc2OCCCc2ccncc2O)c1.CCOC(=O)c1cccc(Oc2ncccc2OCCCc2ccncc2O)c1.O=C(O)/C=C/C(=O)O [Example 29, 2-(3-ethoxycarbonylphenoxy)-3-[3-(3-hydroxypyridin-4-yl)propoxy]pyridine.0.5 fumarate]
[2]; 10 mg/kg orally, one hour prior to antigen (ovalbumin i.v.)
  Inhibitory Rate: 42%

## Oc1cnccc1CCCOc1cccnc1Oc1ccccc1 [Example 30, 2-phenoxy-3-[3-(3-hydroxypyridin-4-yl)propoxy]pyridine]
[1]
  IC50: 11 nM
[2]; [4]
  inhibition in vivo at 10 mg/kg: 46.5%

## Oc1cnccc1CCCOc1cccnc1Oc1cccc(Cl)c1 [Example 31, 2-(3-chlorophenoxy)-3-[3-(3-hydroxypyridin-4-yl)-propoxy]pyridine]
[3]
  toxicity in acute toxicity test: never showed any toxicity
[1]
  IC50: 15.7 nM
[2]; [5]
  inhibition in vivo at 3 mg/kg: 39%
  inhibition in vivo at 30 mg/kg: 69%
[2]; 10 mg/kg orally, 2 hours prior to antigen (ovalbumin i.v.)
  inhibition in vivo at 10 mg/kg: 66%

## Oc1cnccc1CCCOc1cccnc1Oc1cccc(Br)c1 [Example 32, 2-(3-bromophenoxy)-3-[3-(3-hydroxypyridin-4-yl)-propoxy]pyridine]
[1]
  IC50: 14.2 nM
[2]; [6]
  inhibition in vivo at 3 mg/kg: 34%
  inhibition in vivo at 30 mg/kg: 72%
[2]; [4]
  inhibition in vivo at 10 mg/kg: 70%

## Brc1cccc(Oc2ncccc2OCCCc2ccncc2)c1 [Example 35, 2-(3-bromophenoxy)-3-[3-(pyridin-4-yl)propoxy]pyridine]
[1]
  IC50: 25.8 nM
[2]; [4]
  inhibition in vivo at 10 mg/kg: 49.3%

## c1ccc(Oc2ncccc2OCCCc2ccncc2)cc1 [Example 37, 2-phenoxy-3-[3-(pyridin-4-yl)propoxy]pyridine]
other
  melting point: 97 to 98 °C
[1]
  IC50: 26.8 nM
[2]; [4]
  inhibition in vivo at 10 mg/kg: 49.6%

## Fc1cccc(Oc2ncccc2OCCCc2ccncc2)c1 [Example 39, 2-(3-fluorophenoxy)-3-[3-(pyridin-4-yl)propoxy]pyridine]
other
  melting point: 117 to 118 °C
[1]
  IC50: 20.5 nM
[2]; [4]
  inhibition in vivo at 10 mg/kg: 66.3%

## Brc1cccc(Oc2ncccc2OCCCc2cccnc2)c1 [Example 40]
other
  melting point: 46 to 48 °C
[1]
  IC50: 18.3 nM
[2]; [4]
  inhibition in vivo at 10 mg/kg: 45.3%

## N#Cc1cccc(Oc2ncccc2OCCCc2ccncc2)c1 [Example 41, 2-(3-Cyanophenoxy)-3-[3-(pyridin-4-yl)propoxy]pyridine]
other
  melting point: 112 to 113 °C
[1]
  IC50: 38.6 nM

## Oc1cnccc1CCCOc1cccnc1Oc1cccc(F)c1 [Example 44, 2-(3-fluorophenoxy)-3-[3-(3-hydroxypyridin-4-yl)-propoxy]pyridine]
[1]
  IC50: 34.6 nM
[2]; [4]
  inhibition in vivo at 10 mg/kg: 55%

## Oc1cnccc1CCCOc1cccnc1Nc1cccc(Br)c1 [Example 46, 2-(3-bromoanilino)-3-[3-(3-hydroxypyridin-4-yl)propoxy]-pyridine]
[2]; [4]
  inhibition in vivo at 10 mg/kg: 45.7%

## COC(=O)c1cccc(Oc2ncccc2OCCCc2ccncc2)c1 [Example 53, 2-(3-methoxycarbonylphenoxy)-3-[3-(pyridin-4-yl)-propoxy]pyridine]
[1]
  IC50: 23.4 nM

## CC(=O)Oc1cnccc1CCCOc1cccnc1Oc1cccc(Cl)c1 [Example 54, 2-(3-chlorophenoxy)-3-[3-(3-acetoxypyridin-4-yl)propoxy]-pyridine.monofumarate]
[1]
  IC50: 63.3 nM
[2]; [4]
  inhibition in vivo at 10 mg/kg: 33%

## CC(=O)Oc1cnccc1CCCOc1cccnc1Oc1ccccc1 [Example 56, 2-phenoxy-3-[3-(3-acetoxypyridin-4-yl)propoxy]pyridine]
[1]
  IC50: 5.6 nM

## CC(=O)Oc1cnccc1CCCOc1cccnc1Cc1cccc(Br)c1 [Example 57, 2-(3-bromobenzyl)-3-[3-(3-acetoxypyridin-4-yl)propoxy]-pyridine.1.5 fumarate]
[1]
  IC50: 22.9 nM

## Oc1cncc(CCCOc2cccnc2Oc2cccc(Cl)c2)c1 [Example 65, 2-(3-chlorophenoxy)-3-[3-(5-hydroxypyridin-3-yl)-propoxy]pyridine]
[1]
  IC50: 85.6 nM

## Nc1cncc(O)c1CCCOc1cccnc1Oc1cccc(Cl)c1 [Example 69, 2-(3-chlorophenoxy)-3-[3-(3-amino-5-hydroxypyridin-4-yl)propoxy]pyridine.1.0 fumarate]
[1]
  IC50: 41.2 nM

## CS(=O)(=O)Nc1cnccc1CCCOc1cccnc1Oc1cccc(Cl)c1 [Example 70, 2-(3-chlorophenoxy)-3-[3-(3-methylsulfonylaminopyridin-4-yl)propoxy]pyridine]
[1]
  IC50: 150 nM

## Oc1cncc(Cl)c1CCCOc1cccnc1Oc1cccc(Cl)c1 [Example 73, 2-(3-chlorophenoxy)-3-[3-(3-chloro-5-hydroxypyridin-4-yl)propoxy]pyridine]
[1]
  IC50: 200 nM

## COc1ccc(C(=O)Nc2c(Cl)cncc2Cl)cc1OC1CCCC1 [RP-73401, reference compound]
[1]
  IC50: 0.18 nM

## COc1ccc(C2CNC(=O)C2)cc1OC1CCCC1 (stereo not shown) [Rolipram, reference compound]
[1]
  IC50: 28.4 nM

## COc1ccc([C@]2(C#N)CC[C@@H](C(=O)O)CC2)cc1OC1CCCC1 [SB-207499, reference compound]
[1]
  IC50: 11 nM
